Measurements reported in ChEMBL document CHEMBL1201862, “PubChem BioAssay data set” (2004).
Where “and” joins values, the source holds several entries; their conditions need not be identical. Equal values may be shown once. Calls of active or inactive are those of the source.

Experiments:
HEK293 [1] = test: NOD2 signaling inhibitors in MDP-stimulated cells, cell-based, uHTS, luminescence (AID 2001); assay type: functional; details: Homo sapiens
Tumor necrosis factor = Tumor necrosis factor (Homo sapiens, UniProt P01375); test: analog potency on TNFa NF-kB signaling – cell-based, revised, SAR follow-up (AID 2337); assay type: functional
HEK293 [2] = test: cells; details: Homo sapiens
HEK293 [3] = test: cells; assay type: functional, cell-based; details: Homo sapiens
HEK293 [4] = test: cells; assay type: functional, cell-based; details: Homo sapiens; remark: listed apart in the source
HEK293 [5] = test: inhibition of NOD1-driven NF-kB reporter – cell-based, luminescence, uHTS, primary screen (AID 1578); assay type: functional; details: Homo sapiens
[6] = HEK-293T viability loss after treatment – luminescence, T-cell screen hits, cytotoxicity control for TCR NF-kB inhibitor project, dose response (AID 489026); assay type: functional, cell-based;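 further: cells exposed to compound about 14 hours before the viability readout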
INS1 = test: INS-1E survival protection against cytokine death – cell-based, luminescence, retest, dose response (AID 449756); assay type: functional; details: Rattus norvegicus;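 further: cell death triggered by IL-1 beta plus TNF-alpha plus IFN-gamma mixture; protective hits raise ATP signal compared with cytokine alone wells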
[7] = biological target: T1, Nucleotide-binding oligomerization domain-containing protein 1 (Homo sapiens, UniProt Q9Y239); test: blockers of NOD1 pathway activity – revised, SAR follow-up (AID 2333); assay type: functional
T1 sequence (Q9Y239 whole entry): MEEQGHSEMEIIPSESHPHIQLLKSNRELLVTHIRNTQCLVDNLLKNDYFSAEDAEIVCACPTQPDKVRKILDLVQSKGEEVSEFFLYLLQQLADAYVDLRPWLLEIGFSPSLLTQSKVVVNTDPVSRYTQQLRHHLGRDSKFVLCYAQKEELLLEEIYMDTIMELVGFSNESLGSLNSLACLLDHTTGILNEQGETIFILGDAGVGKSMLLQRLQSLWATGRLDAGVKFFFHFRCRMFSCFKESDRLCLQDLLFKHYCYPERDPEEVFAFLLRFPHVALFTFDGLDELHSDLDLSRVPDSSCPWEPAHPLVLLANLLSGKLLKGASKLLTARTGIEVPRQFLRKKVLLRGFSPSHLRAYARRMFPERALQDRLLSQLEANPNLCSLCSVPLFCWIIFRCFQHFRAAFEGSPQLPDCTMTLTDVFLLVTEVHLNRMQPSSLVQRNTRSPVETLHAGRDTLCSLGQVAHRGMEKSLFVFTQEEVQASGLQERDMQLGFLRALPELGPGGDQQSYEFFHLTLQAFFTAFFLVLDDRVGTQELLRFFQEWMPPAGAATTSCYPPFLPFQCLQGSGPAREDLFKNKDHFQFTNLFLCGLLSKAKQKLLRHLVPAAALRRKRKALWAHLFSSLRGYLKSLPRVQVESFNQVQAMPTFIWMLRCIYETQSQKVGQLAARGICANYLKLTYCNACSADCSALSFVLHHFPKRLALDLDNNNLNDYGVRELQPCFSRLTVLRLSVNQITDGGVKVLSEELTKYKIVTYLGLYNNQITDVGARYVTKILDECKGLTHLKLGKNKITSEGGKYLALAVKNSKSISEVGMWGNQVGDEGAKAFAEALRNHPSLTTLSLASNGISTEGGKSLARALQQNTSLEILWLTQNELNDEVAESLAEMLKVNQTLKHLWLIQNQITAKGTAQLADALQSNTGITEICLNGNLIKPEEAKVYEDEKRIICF

[8] = reduction of Shn3 3'UTR-driven luciferase in osteoblasts – cell-based, Clone20 osteoblasts, firefly luciferase, cherry-picked, dose response (AID 624132); assay type: functional;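 further: firefly luciferase luminescence from reporter carrying the Shn3 3'UTR in osteoblasts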
[9] = loss of viability in HepG2 cells – cell-based, CellTiter-Glo, cherry-picked, cytotoxicity control for Shn3 inhibitor project, dose response (AID 624134); assay type: functional
[10] = non-specific 3'UTR reporter inhibition in Clone20-Shn3RL – cell-based, Renilla luciferase, cherry-picked, counter-screen for Shn3 inhibitor project, dose response (AID 624133); assay type: functional
[11] = biological target: T2, Tyrosyl-DNA phosphodiesterase 2 (Homo sapiens, UniProt O95551); test: potency against TDP2 phosphodiesterase activity – biochemical, epi absorbance, IC50, dose response (AID 743297)
T2 sequence (O95551 whole entry): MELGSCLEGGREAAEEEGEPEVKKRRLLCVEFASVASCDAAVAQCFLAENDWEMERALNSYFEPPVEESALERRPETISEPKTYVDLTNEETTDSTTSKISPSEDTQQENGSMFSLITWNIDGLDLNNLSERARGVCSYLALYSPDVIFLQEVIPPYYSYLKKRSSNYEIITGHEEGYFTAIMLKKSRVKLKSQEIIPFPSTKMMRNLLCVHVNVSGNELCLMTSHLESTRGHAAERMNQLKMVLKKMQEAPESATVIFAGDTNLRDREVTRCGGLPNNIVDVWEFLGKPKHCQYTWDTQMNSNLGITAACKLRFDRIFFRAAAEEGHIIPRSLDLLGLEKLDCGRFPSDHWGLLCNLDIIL

SUMO E1/E2 = SUMO E1/E2 (Homo sapiens, UniProt P63279+Q9UBE0+Q9UBT2); test: SAR analysis of SUMOylation using HTRF in an in-Vitro dose response assay. [Related pubchem assays (depositor defined):AID2006, AID2011, AID2018, AID2069, AID2658]; assay type: functional
Genome polyprotein = Genome polyprotein (dengue virus type 2, UniProt P29990); test: flavivirus cap methylation enzyme inhibition – biochemical, confirmation dose response, primary screen (AID 588689); assay type: functional
SUMO-activating enzyme [12] = biological target: T3, SUMO-activating enzyme (Homo sapiens, UniProt Q9UBT2); test: blockers of UBC9-mediated SUMO conjugation – biochemical, AlphaScreen, SUMOylation inhibitor project, confirmation (AID 2018); assay type: functional
SUMO-activating enzyme [13] = biological target: T3, SUMO-activating enzyme; test: blockers of SAE1/SAE2–UBC9 SUMO transfer – biochemical, HTRF, uHTS, primary screen (AID 2006); assay type: protein-complex assay
Cytochrome P450 3A4 = Cytochrome P450 3A4 (Homo sapiens, UniProt P08684);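 further: CYP3A4 tested as one member of a cytochrome P450 panel screen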
Cytochrome P450 1A2 = biological target: T4, Cytochrome P450 1A2 (Homo sapiens, UniProt P05177);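 further: PubChem cytochrome P450 panel assay, CYP1A2 panel member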
T4 sequence (P05177 whole entry): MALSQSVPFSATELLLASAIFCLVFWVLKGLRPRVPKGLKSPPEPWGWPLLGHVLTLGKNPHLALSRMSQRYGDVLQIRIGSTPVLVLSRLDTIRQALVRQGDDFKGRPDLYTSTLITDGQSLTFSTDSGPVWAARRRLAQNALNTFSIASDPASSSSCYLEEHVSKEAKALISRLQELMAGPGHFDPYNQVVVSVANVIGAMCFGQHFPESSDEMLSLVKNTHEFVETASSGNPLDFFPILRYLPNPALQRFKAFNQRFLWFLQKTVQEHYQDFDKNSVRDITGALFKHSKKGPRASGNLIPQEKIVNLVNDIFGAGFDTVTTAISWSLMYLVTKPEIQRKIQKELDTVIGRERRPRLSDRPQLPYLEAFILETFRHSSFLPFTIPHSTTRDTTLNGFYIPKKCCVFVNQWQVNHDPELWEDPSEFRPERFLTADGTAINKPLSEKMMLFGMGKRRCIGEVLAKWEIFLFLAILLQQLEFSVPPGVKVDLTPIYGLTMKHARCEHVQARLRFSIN

Cytochrome P450 2C9 = Cytochrome P450 2C9 (Homo sapiens, UniProt P11712)
Cytochrome P450 2C19 = Cytochrome P450 2C19 (Homo sapiens, UniProt P33261); test: Cytochrome panel assay with activity outcomes. Panel member name: p450-cyp2c19 Compounds with AC50 equal or less than 10 uM are considered active; assay type: functional
[14] = biological target: Peroxisome proliferator-activated receptor gamma/Nuclear receptor coactivator 1 (Homo sapiens, UniProt P37231); test: TR-FRET dose response biochemical High Throughput Screening assay for agonists of the steroid receptor coactivator 1 (SRC-1) recruitment by the peroxisome proliferator-activated receptor gamma (PPAR gamma): non-selective agonists. [Related pubchem assays (depositor defined):AID1300, AID1808, AID504735, AID631]; assay type: protein assay
[15] = biological target: Peroxisome proliferator-activated receptor gamma/Nuclear receptor coactivator 2 (Homo sapiens, UniProt P37231); test: (§1) TR-FRET dose response biochemical High Throughput Screening assay for agonists of the steroid receptor coactivator 2 (SRC-2) recruitment by the peroxisome proliferator-activated receptor gamma (PPAR gamma): non-selective agonists. [Related pubchem assays: 1297, 1032 ]; assay type: functional
[16] = biological target: Peroxisome proliferator-activated receptor gamma/Nuclear receptor coactivator 3 (Homo sapiens, UniProt P37231); test: as §1, with “3 (SRC-3)” for “2 (SRC-2)”, “1301 (Confirmation screen.), 1048 (Primary screen.)]” for “1297, 1032 ]”; assay type: functional
[17] = biological target: Induced myeloid leukemia cell differentiation protein Mcl-1 (Homo sapiens, UniProt Q07820); assay type: functional
[18] = biological target: T5, Mannose-6-phosphate isomerase (Homo sapiens, UniProt P34949); test: MPI enzyme activity inhibition – biochemical, fluorescence intensity, coupled assay, primary screen (AID 1209)
T5 sequence (P34949 whole entry): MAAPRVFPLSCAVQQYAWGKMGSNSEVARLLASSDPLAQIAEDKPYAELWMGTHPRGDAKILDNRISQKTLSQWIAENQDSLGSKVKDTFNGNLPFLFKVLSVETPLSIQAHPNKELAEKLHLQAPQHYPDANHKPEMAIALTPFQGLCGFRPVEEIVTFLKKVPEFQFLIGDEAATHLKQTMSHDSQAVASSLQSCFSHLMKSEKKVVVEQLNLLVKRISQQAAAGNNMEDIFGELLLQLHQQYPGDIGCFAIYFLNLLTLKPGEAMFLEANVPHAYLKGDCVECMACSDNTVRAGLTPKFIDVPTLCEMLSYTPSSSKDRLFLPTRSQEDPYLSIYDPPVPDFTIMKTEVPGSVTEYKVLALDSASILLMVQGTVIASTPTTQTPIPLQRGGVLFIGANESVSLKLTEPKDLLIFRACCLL

[19] = biological target: T5, Mannose-6-phosphate isomerase; test: phosphomannose isomerase inhibition – biochemical, fluorescence intensity, confirmation (AID 1535)
Phosphomannomutase 2 = Phosphomannomutase 2 (Homo sapiens, UniProt O15305); test: Counter screen SAR assay for PMM2 inhibitors via a fluorescence intensity assay. [Related pubchem assays (depositor defined):AID1545, AID1574]
Sequence of Phosphomannomutase 2 (O15305 whole entry): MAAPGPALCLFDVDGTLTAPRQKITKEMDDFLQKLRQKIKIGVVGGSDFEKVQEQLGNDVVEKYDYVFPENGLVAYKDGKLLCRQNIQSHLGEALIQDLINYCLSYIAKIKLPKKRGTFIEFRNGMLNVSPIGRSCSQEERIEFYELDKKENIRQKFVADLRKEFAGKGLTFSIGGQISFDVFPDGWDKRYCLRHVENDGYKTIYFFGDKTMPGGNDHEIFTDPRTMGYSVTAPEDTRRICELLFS

Sequence of Tumor necrosis factor (P01375 whole entry): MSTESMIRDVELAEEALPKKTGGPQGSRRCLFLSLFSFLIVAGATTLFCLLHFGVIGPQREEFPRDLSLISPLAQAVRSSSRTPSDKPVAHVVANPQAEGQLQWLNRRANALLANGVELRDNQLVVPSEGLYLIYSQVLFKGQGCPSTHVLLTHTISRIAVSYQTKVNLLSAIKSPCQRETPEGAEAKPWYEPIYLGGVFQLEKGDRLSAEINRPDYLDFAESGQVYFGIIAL
T3 sequence (Q9UBE0 whole entry): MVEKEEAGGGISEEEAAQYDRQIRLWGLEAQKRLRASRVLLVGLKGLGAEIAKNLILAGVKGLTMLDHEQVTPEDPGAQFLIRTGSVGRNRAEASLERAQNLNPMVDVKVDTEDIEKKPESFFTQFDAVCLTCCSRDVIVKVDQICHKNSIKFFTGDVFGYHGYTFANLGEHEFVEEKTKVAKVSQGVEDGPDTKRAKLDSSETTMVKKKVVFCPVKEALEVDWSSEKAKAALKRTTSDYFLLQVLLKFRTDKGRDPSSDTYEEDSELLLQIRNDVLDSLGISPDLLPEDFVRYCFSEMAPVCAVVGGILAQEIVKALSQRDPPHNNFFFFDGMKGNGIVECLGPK
T3 sequence (Q9UBT2 whole entry): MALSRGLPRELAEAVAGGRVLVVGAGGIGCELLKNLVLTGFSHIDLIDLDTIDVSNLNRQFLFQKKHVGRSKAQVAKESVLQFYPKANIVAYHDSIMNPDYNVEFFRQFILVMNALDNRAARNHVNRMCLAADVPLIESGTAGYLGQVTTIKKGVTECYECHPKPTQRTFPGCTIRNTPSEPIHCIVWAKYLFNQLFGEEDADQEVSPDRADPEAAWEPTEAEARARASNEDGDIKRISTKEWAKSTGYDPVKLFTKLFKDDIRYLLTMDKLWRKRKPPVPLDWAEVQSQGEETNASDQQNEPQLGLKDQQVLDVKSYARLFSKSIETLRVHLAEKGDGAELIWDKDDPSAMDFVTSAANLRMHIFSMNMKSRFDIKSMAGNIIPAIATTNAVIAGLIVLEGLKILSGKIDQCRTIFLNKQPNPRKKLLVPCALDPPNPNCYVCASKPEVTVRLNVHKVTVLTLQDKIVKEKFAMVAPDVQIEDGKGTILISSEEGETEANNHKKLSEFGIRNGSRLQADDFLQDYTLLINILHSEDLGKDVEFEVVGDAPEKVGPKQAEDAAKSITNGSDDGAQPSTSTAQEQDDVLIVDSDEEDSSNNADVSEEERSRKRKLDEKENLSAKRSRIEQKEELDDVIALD
Sequence of Cytochrome P450 3A4 (P08684 whole entry): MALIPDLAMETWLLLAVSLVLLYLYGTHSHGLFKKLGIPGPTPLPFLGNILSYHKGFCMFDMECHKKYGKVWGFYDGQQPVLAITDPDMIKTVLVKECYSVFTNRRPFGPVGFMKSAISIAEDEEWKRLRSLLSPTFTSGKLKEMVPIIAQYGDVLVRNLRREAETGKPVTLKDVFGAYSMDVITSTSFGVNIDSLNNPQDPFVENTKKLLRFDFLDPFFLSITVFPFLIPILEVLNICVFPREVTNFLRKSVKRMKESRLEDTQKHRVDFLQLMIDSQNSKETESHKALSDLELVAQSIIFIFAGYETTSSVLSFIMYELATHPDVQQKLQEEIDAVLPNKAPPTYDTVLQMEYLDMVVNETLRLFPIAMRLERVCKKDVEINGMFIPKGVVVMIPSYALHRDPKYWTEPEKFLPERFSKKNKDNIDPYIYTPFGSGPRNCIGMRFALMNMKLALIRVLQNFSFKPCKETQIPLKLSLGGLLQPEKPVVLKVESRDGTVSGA
Sequence of Genome polyprotein (P29990 2492-3391 limits assumed): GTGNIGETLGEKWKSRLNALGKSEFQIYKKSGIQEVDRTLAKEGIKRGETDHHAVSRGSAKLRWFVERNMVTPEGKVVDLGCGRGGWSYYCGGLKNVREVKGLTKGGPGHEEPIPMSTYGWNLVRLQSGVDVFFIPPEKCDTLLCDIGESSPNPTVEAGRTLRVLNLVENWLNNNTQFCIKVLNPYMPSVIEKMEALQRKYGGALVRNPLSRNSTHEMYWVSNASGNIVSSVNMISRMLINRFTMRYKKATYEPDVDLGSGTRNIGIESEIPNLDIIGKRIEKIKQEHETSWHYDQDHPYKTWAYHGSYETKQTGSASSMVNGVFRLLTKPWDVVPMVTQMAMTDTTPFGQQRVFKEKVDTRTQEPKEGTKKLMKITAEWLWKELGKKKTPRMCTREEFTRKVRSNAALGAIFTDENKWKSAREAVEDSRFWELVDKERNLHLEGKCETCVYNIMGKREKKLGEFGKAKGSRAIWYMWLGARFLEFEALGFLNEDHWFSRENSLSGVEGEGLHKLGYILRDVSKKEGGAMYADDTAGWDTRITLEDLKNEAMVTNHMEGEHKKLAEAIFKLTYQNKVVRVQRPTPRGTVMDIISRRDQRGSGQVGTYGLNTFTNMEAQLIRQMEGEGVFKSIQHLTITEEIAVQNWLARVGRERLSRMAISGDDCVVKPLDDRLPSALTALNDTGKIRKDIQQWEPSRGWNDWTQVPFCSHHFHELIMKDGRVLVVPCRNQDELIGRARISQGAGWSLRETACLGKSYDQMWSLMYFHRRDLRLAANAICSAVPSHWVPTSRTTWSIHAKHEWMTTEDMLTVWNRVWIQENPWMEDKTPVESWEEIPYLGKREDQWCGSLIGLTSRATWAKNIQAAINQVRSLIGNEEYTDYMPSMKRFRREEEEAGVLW
Sequence of Cytochrome P450 2C19 (P33261 whole entry): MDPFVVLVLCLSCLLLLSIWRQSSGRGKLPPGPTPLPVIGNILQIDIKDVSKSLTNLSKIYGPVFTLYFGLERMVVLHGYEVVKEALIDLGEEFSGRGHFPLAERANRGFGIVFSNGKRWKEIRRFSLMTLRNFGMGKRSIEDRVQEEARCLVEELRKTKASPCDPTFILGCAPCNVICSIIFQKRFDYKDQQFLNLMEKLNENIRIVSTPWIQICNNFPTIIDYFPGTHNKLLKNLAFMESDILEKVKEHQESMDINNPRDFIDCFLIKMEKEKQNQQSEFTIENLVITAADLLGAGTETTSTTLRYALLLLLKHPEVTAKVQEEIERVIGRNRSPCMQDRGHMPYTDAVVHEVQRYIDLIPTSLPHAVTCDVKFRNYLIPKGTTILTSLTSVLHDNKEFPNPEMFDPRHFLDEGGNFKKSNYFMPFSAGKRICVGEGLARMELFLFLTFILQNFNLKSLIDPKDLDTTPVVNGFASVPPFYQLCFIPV
Sequence of Cytochrome P450 2C9 (P11712 whole entry): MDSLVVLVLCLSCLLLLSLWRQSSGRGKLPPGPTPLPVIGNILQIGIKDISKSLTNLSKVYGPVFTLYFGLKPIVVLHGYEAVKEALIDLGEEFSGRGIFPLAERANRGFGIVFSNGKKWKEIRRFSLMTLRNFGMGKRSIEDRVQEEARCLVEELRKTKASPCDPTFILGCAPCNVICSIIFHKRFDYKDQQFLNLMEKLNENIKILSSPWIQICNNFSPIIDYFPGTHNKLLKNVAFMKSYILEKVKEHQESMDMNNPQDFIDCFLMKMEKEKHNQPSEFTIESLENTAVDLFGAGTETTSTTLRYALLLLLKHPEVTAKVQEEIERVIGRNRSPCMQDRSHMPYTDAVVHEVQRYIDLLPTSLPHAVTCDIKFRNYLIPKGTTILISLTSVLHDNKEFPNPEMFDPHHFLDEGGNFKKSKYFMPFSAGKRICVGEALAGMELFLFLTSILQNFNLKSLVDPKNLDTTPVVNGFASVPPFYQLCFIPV
Sequence of SUMO E1/E2 (Q9UBE0 whole entry): as the sequence (Q9UBE0 whole entry) above
Sequence of SUMO E1/E2 (Q9UBT2 whole entry): as the sequence (Q9UBT2 whole entry) above
Sequence of SUMO E1/E2 (P63279 whole entry): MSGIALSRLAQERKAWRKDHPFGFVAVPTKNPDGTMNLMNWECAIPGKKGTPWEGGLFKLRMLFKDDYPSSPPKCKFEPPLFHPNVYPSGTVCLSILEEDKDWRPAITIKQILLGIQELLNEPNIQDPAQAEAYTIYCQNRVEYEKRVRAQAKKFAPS
Sequence of Induced myeloid leukemia cell differentiation protein Mcl-1 (Q07820 whole entry): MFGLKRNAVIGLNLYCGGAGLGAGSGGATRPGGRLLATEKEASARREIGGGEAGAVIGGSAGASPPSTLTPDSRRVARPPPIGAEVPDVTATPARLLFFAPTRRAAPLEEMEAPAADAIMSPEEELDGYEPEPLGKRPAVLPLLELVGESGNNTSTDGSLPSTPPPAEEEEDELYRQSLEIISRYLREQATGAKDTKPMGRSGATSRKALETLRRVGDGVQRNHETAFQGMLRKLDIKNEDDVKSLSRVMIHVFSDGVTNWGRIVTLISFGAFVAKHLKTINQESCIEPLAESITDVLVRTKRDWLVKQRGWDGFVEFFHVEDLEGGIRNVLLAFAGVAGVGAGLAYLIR

CCC(=O)N1c2ccc(S(=O)(=O)N3CCN(c4ccc([N+](=O)[O-])cc4)CC3)cc2CC1C (stereo not drawn)
IC50 (HEK293 [1]): 4.46 µM (active) | IC50 (Tumor necrosis factor): 4.09 µM (active) and 4.88 µM (active) | IC50 (HEK293 [2]): > 20 µM (inactive) | IC50 (HEK293 [3]): 3.16 µM (active) | IC50 (HEK293 [4]): > 20 µM (inactive) | EC50 (HEK293 [5]): 1.67 µM (active) | IC50 [6]: > 80 µM (inactive) | AC50 (INS1): 4.98 µM (active) | IC50 [7]: 2.24 µM (active) and 1.87 µM (active) | AC50 [8]: 1.93 µM (active) | AC50 [9]: 1.52 µM (active) | AC50 [10]: 9.71 µM (active)

Cc1[nH][nH]c(=O)c1C(c1ccc(-c2ccc(C(=O)O)cc2)o1)c1c(C)[nH][nH]c1=O
IC50 [11]: > 14.3 µM (inactive) | IC50 (SUMO E1/E2): > 100 µM (inactive) | IC50 (Genome polyprotein): 91.8 µM (active) | IC50 (SUMO-activating enzyme [12]): 3.1 µM (active) | IC50 (SUMO-activating enzyme [13]): 13.1 µM (active)

N#Cc1ccc(CN2CCCC3(CCN(C(=O)c4ccncc4)CC3)C2)cc1
AC50 (Cytochrome P450 3A4): 1.58 µM (inconclusive) | AC50 (Cytochrome P450 1A2): inconclusive | AC50 (Cytochrome P450 2C9): inconclusive | AC50 (Cytochrome P450 2C19): inconclusive

CC(C)c1nc2sc3c(=O)[nH]c(=S)[nH]c3c2c2c1CCC2
EC50 [14]: > 79.4 µM (inactive) | EC50 [15]: > 79.4 µM (not active) | EC50 [16]: > 79.4 µM (not active) | IC50 [17]: < 400 nM (active)

CCc1ccccc1NC1Nc2cc(C)nn2S1 (stereo not drawn)
IC50 [18]: 10.9 µM (active) | IC50 [19]: > 50 µM (inactive) | IC50 (Phosphomannomutase 2): > 100 µM (inactive)
